Patent US6676932B2, “Ultraviolet absorbent, photostabilizer, ultraviolet ray-absorbing composition, photostabilized composition and external preparation for skin” (Shiseido Co., Ltd., priority 2001, dated 2004)

Columns and labels:
[1] = Stability test in combination with inorganic powder-based ultraviolet shielding agent, sunscreen cream (Test Example 5); type: physicochemical; details: sunscreen cream with inorganic powders; ultraviolet absorbent 10.0 wt %; 50° C. for 2 months; visual observation
Procedure: A sunscreen cream of the following formulation was prepared and stored at 50° C. for 2 months. Under visual observation of the color change, the stability of the inventive pyridazine derivative in combination with inorganic powder-based ultraviolet screening agents commonly in blend as external preparations for skin for the purpose of ultraviolet prevention was examined.
After the ingredient 2 was added to the ingredient 1 to swell the ingredient 2, the ingredients 3 to 11 were mixed with the resulting mixture under heating, for sufficient dispersion and dissolution. While keeping the dispersion at 70° C., a solution of the mixture of the ingredients 12 to 15 was gradually added to the dispersion under thorough emulsification with a homomixer. The resulting mixture was cooled to 30° C. under sufficient stirring to prepare sunscreen creams.

[2] = Stabilization effect on perfume under daylight exposure (Test Examples 92 to 181); type: physicochemical; set-up: key: ◯: no change; Δ: almost no change; x: change; details: daylight exposure (80 MJ)
Procedure: Each test sample was prepared for observation of the change of the odor of the test sample (determined by perfume coordinator) before and after daylight exposure (80 MJ).

[3] = system: sunburn; assay: Ultraviolet preventive effect, application test on beach in summer (Test Example 2); type: in vivo, human
Procedure: An application test was carried out on beach in summer. Equal volumes of samples were individually coated on back halves of subjects. After exposure to direct daylight, the degree of sunburn was assessed according to the following assessment standards. Each group consists of 10 subjects.
Prominently effective: none or almost no sunburn symptom was observed.
Effective: light sunburn symptom was observed.
Ineffective: strong sunburn symptom was observed.
⊚: prominently effective or effective for 80% or more of the subjects.
◯: prominently effective or effective for 50% or more to less than 80% of the subjects.
Δ: prominently effective or effective for 30% or more to less than 50% of the subjects.
x: prominently effective or effective for less than 30% of the subjects.
The aqueous phase and the alcohol phase were separately prepared and then mixed together.
Propylene glycol was added to and dissolved in ion exchange water. The resulting solution was retained at 70° C. under heating (aqueous phase). Other ingredients were mixed […]. The resulting mixture was melted under heating and retained at 70° C. (oil phase). The oil phase was added to the aqueous phase, for preliminary emulsification with a homomixer to homogeneity. Under thorough mixing, subsequently, the mixture was cooled to 30° C.

[4] = Dye stabilization effect under daylight exposure (Test Examples 6-91); type: physicochemical; set-up: key to Δ E: color difference ΔE in Lab vs. color before daylight exposure; key to Appearance (visual determination): ◯: no change; Δ: almost no change; x: change; details: photostabilizer 0.05 wt %, daylight exposure (80 MJ)
Method in brief: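 Test samples exposed to daylight to 80 MJ; appearance judged visually. Colour measured by spectrophotometer in Lab coordinates, with ΔE calculated relative to pre-exposure values (L1, a1, b1).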

[5] = Drug stabilization effect blended with sequestering agent (Test Examples 372 to 391); type: physicochemical; set-up: key to Appearance (visual determination): ◯: no change; Δ: almost no change; x: change; details: drug Glycyrrhizinic acid dipotassium 0.05, photostabilizer blend amount 0.03, daylight exposure (80 MJ)
Procedure: Then, the photostabilization effect of the pyridazine derivative in combination with sequestering agents on each drug and the change of the appearance of each composition were examined, by using the following formulation for assessment.
(§1) For observation of the change of the appearance of each test sample (determination based on visual observation) and the measurement of the remaining ratio by liquid chromatography before and after daylight exposure (80 MJ), the test sample was prepared.

[6] = Drug stabilization effect under daylight exposure (Test Examples 182 to 211); type: physicochemical; set-up: key to Appearance (visual determination): ◯: no change; Δ: almost no change; x: change; details: photostabilizer 0.05 wt %, daylight exposure (80 MJ); for Remaining ratio (%): liquid chromatography
Procedure: as §1

[7] = Photostability test of aqueous solutions under daylight (Test Example 4); type: physicochemical; details: aqueous solution, daylight for 2 weeks (80 MJ)
Procedure: Aqueous solutions of the pyridazine derivative of the invention were exposed to daylight for 2 weeks (at a daylight exposure of 80 MJ). Subsequently, the remaining ratio and the change of the appearance were examined to measure the ultraviolet spectra with a spectrophotometer (solvent: water; concentration of 10 ppm and optical path length of 1 cm). The area under ultraviolet spectra curve from 290 nm to 400 nm were determined by integration to compare the area with the area before daylight exposure.
The remaining ratio and the change of the area under the ultraviolet spectrum were determined on the basis of the following standards.
⊚: 95% or more of those before daylight exposure.
◯: 90% or more to less than 95% of those before daylight exposure.
Δ: 70% or more to less than 90% of those before daylight exposure.
x: less than 70% of those before daylight exposure.

[8] = Dye stabilization effect in blend with sequestering agents (Test Examples 212 to 275); type: physicochemical; details: daylight exposure (80 MJ)
Method in brief: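 Colour difference (ΔE) measured by spectrophotometer in Lab coordinates before and after daylight exposure (80 MJ), relative to pre-exposure values (L1, a1, b1); appearance change also assessed visually.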

[9] = dye Blue 1 (Brilliant Blue FCF) 0.0001 wt %
[10] = dye Green 3 (Fast Green FCF) 0.001 wt %
[11] = dye Red 227 (Acid Fuchsine D) 0.0001 wt %
[12] = dye Yellow 5 (Sunset Yellow FCF) 0.001 wt %
[13] = dyes Red 106 (Acid red) 0.00001 + Yellow 203 (Quinoline Yellow WS) 0.0001 wt %
[14] = dyes Red 213 (Rhodamine B) 0.00001 + Blue 1 (Brilliant Blue FCF) 0.00001 wt %
[15] = dyes Red 401 (Violanin R) 0.0001 + Blue 1 (Brilliant Blue FCF) 0.00001 wt %
[16] = drug Dipotassium glycyrrhizinate 0.05 wt %
[17] = drug dibutylhydroxytoluene 0.01 wt %
[18] = drug dl-α-tocopherol 2-L-ascorbic acid phosphate diester potassium salt 0.01 wt %

Oc1cc(N2CCOCC2)cnn1 [3-Hydroxy-5-morpholinopyridazine, 3-hydroxy-5-morpholinopyridazine]
Color change [1]: no | odor determination ([2]; base perfume Muge, photostabilizer 0.05 wt %): ◯ | odor determination ([2]; base perfume Spicy, photostabilizer 0.2 wt %): ◯ | odor determination ([2]; natural perfume Jasmine oil, photostabilizer 0.05 wt %): ◯ | odor determination ([2]; natural perfume Lavender oil, photostabilizer 0.1 wt %): ◯ | odor determination ([2]; natural perfume Ylang ylang oil, photostabilizer 0.2 wt %): ◯ | odor determination ([2]; synthetic perfume Citral, photostabilizer 0.1 wt %): ◯ | odor determination ([2]; synthetic perfume Linalool, photostabilizer 0.05 wt %): ◯ | odor determination ([2]; synthetic perfume Linalyl acetate, photostabilizer 0.1 wt %): ◯ | odor determination ([2]; synthetic perfume Rose oxide, photostabilizer 0.2 wt %): ◯ | Ultraviolet prevention effect ([3]; cream, blend amount 0.0005 wt %): Δ (prominently effective or effective for 30% or more to less than 50% of the subjects) | Ultraviolet prevention effect ([3]; cream, blend amount 0.001 wt %): ◯ (prominently effective or effective for 50% or more to less than 80% of the subjects) | Ultraviolet prevention effect ([3]; cream, blend amount 0.01 wt %): ⊚ (prominently effective or effective for 80% or more of the subjects) | Ultraviolet prevention effect ([3]; cream, blend amount 1 wt %): ⊚ (prominently effective or effective for 80% or more of the subjects) | Ultraviolet prevention effect ([3]; cream, blend amount 5 wt %): ⊚ (prominently effective or effective for 80% or more of the subjects) | Ultraviolet prevention effect ([3]; cream, blend amount 10 wt %): ⊚ (prominently effective or effective for 80% or more of the subjects) | Ultraviolet prevention effect ([3]; cream, blend amount 20 wt %): ⊚ (prominently effective or effective for 80% or more of the subjects) | Ultraviolet prevention effect ([3]; lotion, blend amount 0.0005 wt %): Δ (prominently effective or effective for 30% or more to less than 50% of the subjects) | Ultraviolet prevention effect ([3]; lotion, blend amount 0.001 wt %): ◯ (prominently effective or effective for 50% or more to less than 80% of the subjects) | Ultraviolet prevention effect ([3]; lotion, blend amount 0.01 wt %): ⊚ (prominently effective or effective for 80% or more of the subjects) | Ultraviolet prevention effect ([3]; lotion, blend amount 1 wt %): ⊚ (prominently effective or effective for 80% or more of the subjects) | Ultraviolet prevention effect ([3]; lotion, blend amount 5 wt %): ⊚ (prominently effective or effective for 80% or more of the subjects) | Ultraviolet prevention effect ([3]; lotion, blend amount 10 wt %): ⊚ (prominently effective or effective for 80% or more of the subjects) | Ultraviolet prevention effect ([3]; lotion, blend amount 20 wt %): ⊚ (prominently effective or effective for 80% or more of the subjects) | Appearance (visual determination) [4, 9]: ◯ | Δ E [4, 9]: 1.31 | Appearance (visual determination) [4, 10]: ◯ | Δ E [4, 10]: 0.48 | Appearance (visual determination) [4, 11]: ◯ | Δ E [4, 11]: 0.52 | Appearance (visual determination) [4, 12]: ◯ | Δ E [4, 12]: 0.52 | Appearance (visual determination) [4, 13]: ◯ | Δ E [4, 13]: 0.85 | Appearance (visual determination) [4, 14]: ◯ | Δ E [4, 14]: 1.08 | Appearance (visual determination) [4, 15]: ◯ | Δ E [4, 15]: 0.44 | Appearance (visual determination) ([5]; no sequestering agent): ◯ | Appearance (visual determination) ([5]; with sodium metaphosphate 0.03): ◯ | Appearance (visual determination) [6, 16]: ◯ | Remaining ratio (%) [6, 16]: 98.9% | Appearance (visual determination) [6, 17]: ◯ | Remaining ratio (%) [6, 17]: 98.8% | Appearance (visual determination) [6, 18]: ◯ | Remaining ratio (%) [6, 18]: 98.0% | Remaining ratio [7]: ⊚ (95% or more of those before daylight exposure) | Change of area under ultraviolet spectrum ([7]; 290 nm to 400 nm): ⊚ (95% or more of those before daylight exposure) | Δ E ([8]; dye Yellow 5 (Sunset Yellow FCF) 0.0001, photostabilizer 0.01, no sequestering agent): 0.61 | Δ E ([8]; dye Yellow 5 (Sunset Yellow FCF) 0.0001, photostabilizer 0.01, with ethylenediaminetetraacetate trisodium 0.03): 0.52 | Δ E ([8]; dye Yellow 5 (Sunset Yellow FCF) 0.0001, photostabilizer 0.01, with sodium metaphosphate 0.03): 0.55 | Δ E ([8]; dye Yellow 5 (Sunset Yellow FCF) 0.0001, photostabilizer 0.01, with sodium polyphosphate 0.03): 0.46 | Δ E ([8]; dyes Red 227 (Acid Fuchsine D) 0.0001 + Yellow 203 (Quinoline Yellow WS) 0.0001, no sequestering agent, photostabilizer blend amount 0.01): 1.68 | Δ E ([8]; dyes Red 227 (Acid Fuchsine D) 0.0001 + Yellow 203 (Quinoline Yellow WS) 0.0001, with sodium metaphosphate 0.02, photostabilizer blend amount 0.01): 0.98
